Assay results as given in ChEMBL document CHEMBL4359834 (J Med Chem, 2019).
Values belong to the compound of their own block, whether it stands above or below them. The source made the active and inactive calls. The rule behind the calls is not given here.

Tests used:
[1] = Inhibition of Class 1 PI3K/mTOR in human A2058 cells assessed as reduction in Akt phosphorylation at Ser473 residue incubated for 1 hr by InCell Western assay; format: cell-based; conditions: A2058, 1 h
[2] = biological target: T1, Phosphatidylinositol 4,5-bisphosphate 3-kinase catalytic subunit alpha isoform (Homo sapiens, UniProt P42336); assay: Displacement of Alexafluor labelled kinase tracer314 from recombinant N-terminal His6-tagged PI3K p110alpha (unknown origin) incubated for 1 hr by FRET-based LanthaScreen Eu kinase binding assay
T1 sequence (P42336 whole entry, the tested form may be a part, canonical isoform): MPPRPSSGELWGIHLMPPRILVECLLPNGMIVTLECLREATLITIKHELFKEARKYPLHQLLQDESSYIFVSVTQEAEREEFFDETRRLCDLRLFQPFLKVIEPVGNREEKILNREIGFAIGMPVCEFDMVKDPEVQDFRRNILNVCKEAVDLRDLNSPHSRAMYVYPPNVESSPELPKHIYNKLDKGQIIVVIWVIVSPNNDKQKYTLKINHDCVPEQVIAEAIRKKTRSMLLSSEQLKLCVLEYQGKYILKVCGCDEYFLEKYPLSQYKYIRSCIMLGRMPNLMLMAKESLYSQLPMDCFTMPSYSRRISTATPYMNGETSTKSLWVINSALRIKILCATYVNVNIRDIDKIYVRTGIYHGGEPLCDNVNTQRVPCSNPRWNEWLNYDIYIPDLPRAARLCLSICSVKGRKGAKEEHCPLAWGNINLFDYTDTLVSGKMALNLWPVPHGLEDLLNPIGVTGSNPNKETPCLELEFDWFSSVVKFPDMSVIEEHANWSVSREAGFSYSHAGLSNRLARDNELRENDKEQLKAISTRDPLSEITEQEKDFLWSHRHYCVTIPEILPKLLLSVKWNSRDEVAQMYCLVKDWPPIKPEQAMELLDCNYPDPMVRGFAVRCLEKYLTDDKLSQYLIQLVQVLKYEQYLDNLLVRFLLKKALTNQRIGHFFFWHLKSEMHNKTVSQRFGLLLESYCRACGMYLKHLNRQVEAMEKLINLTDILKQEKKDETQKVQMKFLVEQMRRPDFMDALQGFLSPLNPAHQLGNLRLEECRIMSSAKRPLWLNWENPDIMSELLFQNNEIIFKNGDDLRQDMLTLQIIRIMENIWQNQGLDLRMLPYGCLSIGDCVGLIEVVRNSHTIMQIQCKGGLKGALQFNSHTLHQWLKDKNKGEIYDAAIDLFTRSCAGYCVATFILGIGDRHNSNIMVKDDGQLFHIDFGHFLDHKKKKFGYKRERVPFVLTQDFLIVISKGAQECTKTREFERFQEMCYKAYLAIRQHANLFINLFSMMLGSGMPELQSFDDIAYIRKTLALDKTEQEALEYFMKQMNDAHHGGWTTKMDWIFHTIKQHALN

[3] = biological target: Serine/threonine-protein kinase mTOR (Homo sapiens, UniProt P42345); assay: Displacement of Alexafluor labelled kinase tracer314 from recombinant human C-terminal GST-tagged mTOR (1360 to 2549 amino acids) expressed in insect cells incubated for 1 hr by FRET-based LanthaScreen Eu kinase binding assay
[4] = cells; conditions: Homo sapiens, A2058, 1 h
Description: Inhibition of Class 1 PI3K/mTOR in human A2058 cells assessed as reduction in S6 phosphorylation at Ser235/236 residue incubated for 1 hr by InCell Western assay

[5] = Intrinsic clearance in human hepatocytes assessed per 10^6 cells; format: ADME, cell-based, Hepatocyte; conditions: read-out: CLH
[6] = Intrinsic clearance in rat hepatocytes assessed per 10^6 cells; format: ADME, cell-based, Hepatocyte; conditions: read-out: CLH
[7] = Intrinsic clearance in dog hepatocytes assessed per 10^6 cells; format: ADME, cell-based, Canis lupus familiaris, Hepatocyte; conditions: read-out: CLH
[8] = Intrinsic clearance in mouse hepatocytes assessed per 10^6 cells; format: ADME, cell-based, Hepatocyte; conditions: read-out: CLH
[9] = Half-life clearance in human hepatocytes; format: ADME, cell-based, Hepatocyte
[10] = Half-life in rat hepatocytes; format: ADME, cell-based, Hepatocyte
[11] = Half-life in dog hepatocytes; format: ADME, cell-based, Canis lupus familiaris, Hepatocyte
[12] = Half-life in mouse hepatocytes; format: ADME, cell-based, Hepatocyte
[13] = biological target: Phosphatidylinositol 4,5-bisphosphate 3-kinase catalytic subunit gamma isoform (Homo sapiens, UniProt P48736); assay: Binding affinity to wild-type human partial length PIK3CG (S144 to A1102 residues) expressed in mammalian expression system by quantitative PCR based KINOMEscan assay
Phosphatidylinositol 4,5-bisphosphate 3-kinase catalytic subunit gamma isoform, sequence (P48736 whole entry, the tested form may be a part, canonical isoform): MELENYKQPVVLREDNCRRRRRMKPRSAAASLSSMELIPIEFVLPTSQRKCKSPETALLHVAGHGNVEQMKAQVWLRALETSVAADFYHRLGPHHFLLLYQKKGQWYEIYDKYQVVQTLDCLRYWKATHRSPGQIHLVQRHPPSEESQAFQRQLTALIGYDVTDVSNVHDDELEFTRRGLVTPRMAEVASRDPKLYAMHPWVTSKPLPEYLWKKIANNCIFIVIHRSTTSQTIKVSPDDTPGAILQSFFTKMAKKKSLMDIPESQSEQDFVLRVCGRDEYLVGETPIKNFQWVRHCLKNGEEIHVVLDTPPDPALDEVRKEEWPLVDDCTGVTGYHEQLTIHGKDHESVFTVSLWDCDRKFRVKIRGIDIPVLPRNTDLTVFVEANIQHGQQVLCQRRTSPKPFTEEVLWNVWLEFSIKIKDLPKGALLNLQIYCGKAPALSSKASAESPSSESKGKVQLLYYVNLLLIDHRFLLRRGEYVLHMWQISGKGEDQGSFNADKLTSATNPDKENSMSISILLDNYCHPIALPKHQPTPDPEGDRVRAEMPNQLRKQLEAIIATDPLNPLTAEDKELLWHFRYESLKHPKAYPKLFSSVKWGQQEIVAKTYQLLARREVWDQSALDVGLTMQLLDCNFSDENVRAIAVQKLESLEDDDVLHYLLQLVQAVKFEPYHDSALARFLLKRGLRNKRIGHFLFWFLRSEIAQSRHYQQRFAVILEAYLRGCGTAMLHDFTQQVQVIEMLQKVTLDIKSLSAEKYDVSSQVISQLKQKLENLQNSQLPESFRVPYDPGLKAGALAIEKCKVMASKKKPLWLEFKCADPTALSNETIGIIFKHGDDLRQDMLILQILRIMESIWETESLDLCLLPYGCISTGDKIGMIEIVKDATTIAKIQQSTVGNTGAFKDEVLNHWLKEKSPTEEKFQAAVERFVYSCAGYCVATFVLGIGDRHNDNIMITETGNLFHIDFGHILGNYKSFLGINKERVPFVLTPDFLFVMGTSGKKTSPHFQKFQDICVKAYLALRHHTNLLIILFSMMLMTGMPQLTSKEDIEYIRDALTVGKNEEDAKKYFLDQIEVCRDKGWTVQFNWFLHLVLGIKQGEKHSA

[14] = biological target: T1, Phosphatidylinositol 4,5-bisphosphate 3-kinase catalytic subunit alpha isoform; assay: Binding affinity to wild-type human partial length PIK3CA (R108 to N1068 residues) expressed in mammalian expression system by quantitative PCR based KINOMEscan assay
[15] = biological target: PI3-kinase p110-alpha/p85-alpha (Homo sapiens) (UniProt P27986+P42336); assay: Inhibition of Wortmannin covalent binding to N-terminal His-tagged recombinant human PI3K p110alpha/p85alpha Lys802 expressed in baculovirus expression system preincubated for 1 hr followed by Wortmannin addition and measured after 20 mins by SDS-PAGE based immunoblot assay
[16] = Metabolic stability in mouse liver microsomes assessed as compound remaining after 30 mins; format: ADME, Microsome; conditions: read-out: Stability
[17] = Metabolic stability in dog liver microsomes assessed as compound remaining after 30 mins; format: ADME, Canis lupus familiaris, Microsome; conditions: read-out: Stability
[18] = Metabolic stability in rat liver microsomes assessed as compound remaining after 30 mins; format: ADME, Microsome; conditions: read-out: Stability
[19] = Metabolic stability in human liver microsomes assessed as compound remaining after 30 mins; format: ADME, Microsome; conditions: read-out: Stability
[20] = Cmax in C57BL/6J mouse plasma at 50 mg/kg, po administered as single dose after 30 mins by LC-MS analysis; format: ADME, organism-based; set-up: dose 50 mg/kg, route oral
[21] = Tmax in C57BL/6J mouse plasma at 50 mg/kg, po administered as single dose by LC-MS analysis; format: ADME, organism-based
[22] = Terminal half-life in C57BL/6J mouse plasma at 50 mg/kg, po administered as single dose by LC-MS analysis; format: ADME, organism-based; conditions: read-out: beta t1/2 (converted)
[23] = AUC (0 to 8 hrs) in C57BL/6J mouse plasma at 50 mg/kg, po administered as single dose by LC-MS analysis; format: ADME, organism-based; set-up: dose 50 mg/kg, time < 8 hr, route oral
[24] = Clearance in C57BL/6J mouse plasma at 50 mg/kg, po administered as single dose by LC-MS analysis; format: ADME, organism-based
[25] = Cmax in C57BL/6J mouse brain at 50 mg/kg, po administered as single dose after 30 mins by LC-MS analysis; format: ADME, organism-based; set-up: dose 50 mg/kg, route oral
[26] = Tmax in C57BL/6J mouse brain at 50 mg/kg, po administered as single dose by LC-MS analysis; format: ADME, organism-based
[27] = Terminal half-life in C57BL/6J mouse brain at 50 mg/kg, po administered as single dose by LC-MS analysis; format: ADME, organism-based; conditions: read-out: beta t1/2 (converted)
[28] = AUC (0 to 8 hrs) in C57BL/6J mouse brain at 50 mg/kg, po administered as single dose by LC-MS analysis; format: ADME, organism-based; set-up: dose 50 mg/kg, time < 8 hr, route oral
[29] = Cmax in C57BL/6J mouse thigh muscle at 50 mg/kg, po administered as single dose after 30 mins by LC-MS analysis; format: ADME, organism-based; set-up: dose 50 mg/kg, route oral
[30] = Tmax in C57BL/6J mouse thigh muscle at 50 mg/kg, po administered as single dose by LC-MS analysis; format: ADME, organism-based
[31] = Terminal half-life in C57BL/6J mouse thigh muscle at 50 mg/kg, po administered as single dose by LC-MS analysis; format: ADME, organism-based; conditions: read-out: beta t1/2 (converted)
[32] = AUC (0 to 8 hrs) in C57BL/6J mouse thigh muscle at 50 mg/kg, po administered as single dose by LC-MS analysis; format: ADME, organism-based; set-up: dose 50 mg/kg, time < 8 hr, route oral
[33] = Fraction unbound in rat brain; format: ADME, tissue-based
[34] = system: Mus musculus; assay: In vivo inhibition of Class 1 PI3K/mTOR in C57BL/6J mouse assessed as increase in plasma glucose level at 50 mg/kg, po administered as single dose after 10 mins to 1 hr by colorimetric assay; format: functional, organism-based
[35] = system: Mus musculus; assay: In vivo inhibition of Class 1 PI3K/mTOR in C57BL/6J mouse assessed as increase in plasma glucose level at 50 mg/kg, po administered as single dose after 2 hr by colorimetry based immunoassay; format: functional, organism-based
[36] = Toxicity in po dosed male Wistar rat; format: organism-based; conditions: in vivo
[37] = Toxicity in po dosed female Wistar rat; format: organism-based; conditions: in vivo
[38] = AUC (0 to 8 hrs) at steady state in male Wistar rat at 1 mg/kg/day, po after 4 weeks; format: ADME, organism-based; set-up: dose 1 mg/kg/day, time < 8 hr, route oral; conditions: in vivo
[39] = AUC (0 to 8 hrs) at steady state in female Wistar rat at 0.5 mg/kg, po after 4 weeks; format: ADME, organism-based; set-up: time < 8 hr, dose 0.5 mg/kg, route oral; conditions: in vivo
[40] = Toxicity in po dosed male Beagle dog; format: organism-based, Canis lupus familiaris; conditions: in vivo
[41] = Toxicity in po dosed female Beagle dog; format: organism-based, Canis lupus familiaris; conditions: in vivo
[42] = AUClast at steady state in male Beagle dog at 1 mg/kg/day, po after 4 weeks; format: ADME, organism-based, Canis lupus familiaris; conditions: in vivo
[43] = AUClast at steady state in female Beagle dog at 3 mg/kg/day, po after 4 weeks; format: ADME, organism-based, Canis lupus familiaris; conditions: in vivo
[44] = system: OVCAR-3; assay: Antitumor activity against human OVCAR3 cells xenografted in BALB/c nude mouse assessed as reduction in tumor growth at 25 mg/kg, po administered once daily starting from 17 days post inoculation and measured thrice per week; format: functional, organism-based
[45] = Toxicity in BALB/c nude mouse assessed as effect on body weight at 25 mg/kg, po administered once daily starting from 17 days post inoculation and measured after 20 to 40 days post inoculation; format: organism-based; conditions: in vivo
[46] = species on record: Homo sapiens; assay: Inhibition of Class 1 PI3K/mTOR in human SKOV3 cells assessed as reduction in Akt phosphorylation at Ser473 residue incubated for 1 hr by InCell Western assay; format: cell-based
[47] = system: A2058; assay: Inhibition of Class 1 PI3K/mTOR in human A2058 cells assessed as reduction in Akt phosphorylation incubated for 1 hr by InCell Western assay; format: cell-based
[48] = system: A2058; assay: Inhibition of Class 1 PI3K/mTOR in human A2058 cells assessed as reduction in GSK3 phosphorylation incubated for 1 hr by InCell Western assay; format: cell-based
[49] = system: A2058; assay: Inhibition of Class 1 PI3K/mTOR in human A2058 cells assessed as reduction in p70S6K phosphorylation incubated for 1 hr by InCell Western assay; format: cell-based
[50] = system: A2058; assay: Antiproliferative activity against human A2058 cells at 5 to 0.02 uM after 72 hrs by […] staining based assay; format: functional, cell-based
[51] = system: SK-OV-3; assay: Antiproliferative activity against human SKOV3 cells at 5 to 0.02 uM after 72 hrs by […] staining based assay; format: functional, cell-based

SMILES: CCOc1ccc2ccc(=O)oc2c1
hepatocyte CLint [5]: 20 µL/min/1e6 cells
hepatocyte CLint [6]: 30 µL/min/1e6 cells
hepatocyte CLint [7]: 163 µL/min/1e6 cells
hepatocyte CLint [8]: 74 µL/min/1e6 cells
half-life [9]: 1.17 h
half-life [10]: 0.77 h
half-life [11]: 0.142 h
half-life [12]: 0.312 h

SMILES: C[C@@H]1COCCN1c1nc(-c2cnc(N)cc2C(F)(F)F)nc(N2CCOC[C@H]2C)n1
IC50 [1]: 1700 nM
Ki [2]: 684 nM
Ki [3]: 171 nM
IC50 [4]: 1120 nM

SMILES: Nc1cc(C(F)(F)F)c(-c2nc(N3C4CCC3COC4)nc(N3C4CCC3COC4)n2)cn1
IC50 [1]: 755 nM
Ki [2]: 4640 nM
Ki [3]: 76.8 nM
IC50 [4]: 299 nM

Now from value to compound, other results behind:

IC50 [1]: 274 nM
Ki [2]: 31 nM
Ki [3]: 47.8 nM
IC50 [4]: 212 nM
SMILES: Nc1cc(C(F)(F)F)c(-c2nc(N3CCOCC3)nc(N3CC4CCC(C3)O4)n2)cn1

IC50 [1]: 99.6 nM
Ki [2]: 2 nM
Ki [3]: 192 nM
IC50 [4]: 387 nM
SMILES: C[C@H]1COCCN1c1cc(-c2cnc(N)nc2C(F)F)nc(N2CCOCC2)n1

IC50 [1]: 62.2 nM
Ki [2]: 11.1 nM
Ki [3]: 7.4 nM
Kd [13]: 10 nM
Kd [14]: 0.84 nM
inhibition [15]: Active
remaining at 0.5 h [16]: 73.2%
remaining at 0.5 h [17]: 97.4%
remaining at 0.5 h [18]: 106%
remaining at 0.5 h [19]: 81.5%
hepatocyte CLint [5]: 6 µL/min/1e6 cells
hepatocyte CLint [6]: 7 µL/min/1e6 cells
hepatocyte CLint [7]: 10 µL/min/1e6 cells
hepatocyte CLint [8]: 11 µL/min/1e6 cells
half-life [9]: 4.17 h
half-life [10]: 3.2 h
half-life [11]: 2.37 h
half-life [12]: 2.37 h
Cmax [20]: 7800 ng/mL
Tmax [21]: 0.5 h
half-life [22]: 4.7 h
AUC(0-t) at 8 h [23]: 27900 ng·h/mL
CL/F [24]: 20.9 mL/min/kg
Cmax [25]: 12600 ng/mL
Tmax [26]: 0.5 h
half-life [27]: 4.8 h
AUC(0-t) at 8 h [28]: 46500 ng·h/mL
Cmax [29]: 11900 ng/mL
Tmax [30]: 0.5 h
half-life [31]: 3.5 h
AUC(0-t) at 8 h [32]: 39200 ng·h/mL
fraction unbound [33]: 0.08
AUC at 8 h [38]: 335 ng·h/mL
AUC at 8 h [39]: 599 ng·h/mL
AUC(0-t) at 672 h [42]: 127 ng·h/mL
AUC(0-t) at 672 h [43]: 1070 ng·h/mL
IC50 [4]: 61.9 nM
SMILES: C[C@H]1COCCN1c1nc(-c2cnc(N)cc2C(F)F)nc(N2CCOCC2)n1
inhibition [34]: Active
inhibition [35]: Active
NOAEL [36]: 1 mg/kg/day
NOAEL [37]: 0.5 mg/kg
NOAEL [40]: 1 mg/kg/day
NOAEL [41]: 3 mg/kg/day
Activity [44]: Active
Activity [45]: Non-Toxic
inhibition [46]: Active
inhibition [47]: Active
inhibition [48]: Active
inhibition [49]: Active
Activity [50]: Active
Activity [51]: Active
